Experimental data from US10682408B2, “Localized immunosuppression of allografts for peripheral nerve repair” (UNIVERSITY OF WYOMING, priority 2016, dated 2020).

Test system: DRGs, motor neurons, and Schwann cells
Assay: Alamar blue viability assay of PN cells cultured 72 hours with immunosuppressive drugs
Conditions: 72 hours culture, max 1% DMSO
Method: It is contemplated that delivery of immunosuppressive agents function within a favorable therapeutic window. PNs are comprised of three major nervous system cell types, motor neurons, sensory neurons, and Schwann cells. […] FIG. 1B illustrates data regarding the toxicity of tacrolimus to DRGs, motor neurons, and Schwann cells. FIG. 1C illustrates data regarding the toxicity of prednisolone to DRGs, motor neurons, and Schwann cells.
Cells (DRGs, motor neurons, and Schwann cells) were cultured for 72 hours in various concentration of the immunosuppressive drugs and viability was evaluated using the Alamar blue viability assay. ISV's were diluted into media using a maximum of 1% dimethylsulfoxide (DMSO).
Biological material from Sprague Dawley (GFP− and GFP+) and Lewis rats, without any pathological conditions, were utilized to determine the PN allograft methods and materials described herein. Lewis rats were obtained from Charles River Laboratories (Wilmington, Mass.) and Sprague Dawley rats were obtained from Rat Resource and Research Center (Columbia, Mo.). Alzet osmotic pumps (model 1004), commercially available from DURECT Corporation, Cupertino, Calif., were utilized for delivery of immunosuppressive agents to PN allografts.

Structure (SMILES): C[C@]12C=CC(=O)C=C1CC[C@@H]1[C@@H]2[C@@H](O)C[C@@]2(C)[C@H]1CC[C@]2(O)C(=O)CO [prednisolone]
- dose tolerated by the cells (up to): up to 200 μM
